The results in this text go back to patent publication US20070197632A1, “Aminocyclohexyl ether compounds and uses thereof” (Cardiome Pharma Corp, priority 2003, published 2007).

Counter-ions that a name gives are not always drawn. Like-named read-outs stand apart in the source and are kept apart here.

Data set [1] concerns sustained AF maintained during continuous vagal nerve stimulation. The data set is described as follows: Canine vagal-AF model. The class given is in vivo, dog. As to conditions: anesthetized dogs, IV. The procedure:
St.-Georges et al., 1997). Dogs are ventilated mechanically with room air supplemented with oxygen via an endotracheal tube at 20 to 25 breaths/minute with a tidal volume obtained from a nomogram. […] Catheters are inserted into the femoral artery for blood pressure recording and blood gas measurement, and into both femoral veins for drug administration and venous sampling. […] Body temperature is maintained at 37-40° C. with a heating blanket. The heart is exposed via a medial thoracotomy and a pericardial cradle is created. […] Drug effects to terminate sustained AF maintained during continuous vagal nerve stimulation are assessed. […] The vagal stimulation voltage is adjusted under control conditions, and then readjusted after each treatment to maintain the same bradycardic effect. […] Diastolic threshold and ERP are determined in duplicate and averaged to give a single value. […] The interval between the stimulus artefact and the peak of the local electrogram is measured as an index of conduction velocity. […] The stimulus voltage-heart rate relationship for vagal nerve stimulation is determined under control conditions in most experiments. […] After the termination of AF, the diastolic threshold and ERP of the atrium and ventricle are determined. […] Group data are expressed as the mean±SEM. […]

Data set [2] deals with conscious rats. As to conditions: rat, in vivo, iv.
Data set [3] relates to conscious rats. Kind of data set: Determination of CNS toxicity: convulsions in conscious rats under intravenous infusion. The settings on record: Table 5, comparative example compounds; for convulsion dose: minimum iv infusion rate at which partial or complete convulsions are observed; for cum conv dose: total amount of drug infused when convulsions are first observed.

In the case of `O=C(NCC1CCCCN1)c1cc(OCC(F)(F)F)ccc1OCC(F)(F)F` (stereo not shown) [Flecainide], the “Median dose required for termination of AF” value in data set [1] was 2.5 µmol/kg. For the same compound, the “Mean dose required for termination of AF” value in data set [1] (mean±SEM) worked out at 4 ± 2 µmol/kg.

In turn, `COc1ccc(CCO[C@H]2CCCCC2N2CC[C@H](O)C2)cc1OC.Cl` (stereo partly drawn) [Compound 5, (1R,2R)/(1S,2S)-2-[(3s)-Hydroxypyrrolidinyl]-1-(3,4-dimethoxyphenethoxy)-cyclohexane monohydrochloride] came in with a convulsion dose with conscious rats [2] of 64 µmol/kg/min.

In the case of `COc1ccc(CCO[C@@H]2CCCC[C@H]2N2CC[C@H](O)C2)cc1OC.Cl` [Compound 6, (1R,2R)-2-[(3S)-Hydroxypyrrolidinyl]-1-(3,4-dimethoxyphenethoxy)-cyclohexane monohydrochloride], in the data set on conscious rats [2], the convulsion dose was 64 µmol/kg/min.

On to `COc1ccc(CCO[C@H]2CCCCC2N2CCC(O)C2)cc1OC` (stereo partly drawn) [Compound 3, (1R,2R)/(1S,2S)-2-[(3R)/(3S)-Hydroxypyrrolidinyl]-1-(3,4-dimethoxyphenethoxy)-cyclohexane monohydrochloride], for which the convulsion dose with conscious rats [2] was determined as 64 µmol/kg/min.

On to `COc1ccc(CCO[C@H]2CCCC[C@@H]2N2CC[C@H](O)C2)cc1OC.Cl` [Compound 7, (1S,2S)-2-[(3S)-Hydroxypyrrolidinyl]-1-(3,4-dimethoxyphenethoxy)-cyclohexane monohydrochloride], for which the convulsion dose with conscious rats [2] amounted to 64 µmol/kg/min.

`c1ccc2c(CCO[C@H]3CCCCC3N3CCOCC3)csc2c1` (stereo partly shown) [Comparative Example Compound 36]: in the data set with conscious rats [3], the convulsion dose is 8 µmol/kg/min and the cum conv dose was determined as 65 µmol/kg.

In the data set on conscious rats [3], `COc1ccc(CCOC2CCCC[C@H]2N2CCOCC2)cc1OC` (stereo partly shown) [Comparative Example Compound 9, hydrochloride] came in with a convulsion dose of 16 µmol/kg/min and a cum conv dose of 113 µmol/kg.

In the data set on conscious rats [2], `COc1ccc(CCO[C@H]2CCCCC2N2CC[C@@H](O)C2)cc1OC.Cl` (stereo partly drawn) [Compound 4, (1R,2R)/(1S,2S)-2-[(3R)-Hydroxypyrrolidinyl]-1-(3,4-dimethoxyphenethoxy)-cyclohexane monohydrochloride] showed a convulsion dose of 64 µmol/kg/min.

On to `COc1ccc(CCO[C@H]2CCCC[C@@H]2N2CC[C@@H](O)C2)cc1OC.Cl` [Compound 2, (1S,2S)-2-[(3R)-Hydroxypyrrolidinyl]-1-(3,4-dimethoxyphenethoxy)-cyclohexane monohydrochloride], for which the convulsion dose in the data set on conscious rats [2] turned out to be 64 µmol/kg/min.

In the data set with conscious rats [3], `Cl.O=C1CCN(C2CCCC[C@@H]2OCCc2c(Cl)cccc2Cl)C1` (stereo partly drawn) [Comparative Example Compound 41, (1R,2R)/(1S,2S)-2-(3-ketopyrrolidinyl)-1-(2,6-dichlorophenethoxy)cyclo-hexane monohydrochloride] yielded a convulsion dose of 32 µmol/kg/min and a cum conv dose of 190 µmol/kg.

Consider `c1ccc2cc(CCO[C@H]3CCCCC3N3CCOCC3)ccc2c1` (stereo partly drawn) [Comparative Example Compound 30, (1R,2R)/(1S,2S)-[2-(4-morpholinyl)-1-(2-naphihenethoxy)]-cyclohexane monohydrochloride], for which, in the data set with conscious rats [3], the cum conv dose turned out to be 85 µmol/kg.

In the data set on conscious rats [3], `Cl.O=C1CCN([C@@H]2CCCCC2OCc2c(Cl)cccc2Cl)C1` (stereo partly drawn) [Comparative Example Compound 45, (1R,2R)/(1S,2S)-2-(3-ketopyrrolidinyl)-1-[(2,6-dichlorophenyl)methoxy]-cyclohexane monohydrochloride] came in with a convulsion dose of 32 µmol/kg/min.

In the case of `Clc1ccc(CCO[C@H]2CCCCC2N2CCOCC2)cc1Cl` (stereo partly drawn) [Comparative Example Compound 40, (1R,2R)/(1S,2S)-2-(4-morpholinyl)-1-(3,4-dichlorophenethoxy)cyclo-hexane], the convulsion dose with conscious rats [3] amounted to 16 µmol/kg/min.

In the data set on conscious rats [3], `COc1ccc(CCO[C@H]2CCCCC2N2CCC3(C2)OCCO3)cc1OC` (stereo partly shown) [Comparative Example Compound 10, monohydrochloride] yielded a convulsion dose of 16 µmol/kg/min and a cum conv dose of 91.33 µmol/kg.
